The values that follow come from patent US20250144067A1, “PERSONALIZED STARVATION THERAPY FOR CANCER” (Faeth Therapeutics, Inc., priority 2021, published 2025).

Where a name gives a salt, the structure may show the parent alone. Ends that are not written are not given here.

The subject of experiment [1] is NCI-H292 lung cancer cells. The experiment in a line: FDA drug screening, complete media vs cholesterol-free media with simvastatin (TABLE 2). The experiment is classed as cell-based, human. The note with it: for Cholesterol-free media + simvastatin (0.04 μM) / Complete Media: NCI-H292 cells.
Experiment [2] concerns NCI-H292 lung cancer cells. In words: FDA drug screening, complete media vs cholesterol-free media without statin (TABLE 1). The experiment is classed as cell-based, human.
[3] abbreviates: Complete minus Cholesterol-free, >0 enhanced anti-cancer activity, about 0 neutral, <0 antagonist.
Where [4] appears, read: NCI-H292 cells, cholesterol-free media without statin.
Setting [5] is: FDA drug library screen, cholesterol-free media with simvastatin 0.04 μM.
The mark [6] stands for this setting: FDA drug library screen, complete media.
The mark [7] stands for this setting: complete media minus cholesterol-free media + simvastatin, >0 enhanced anti-cancer activity, about 0 neutral, <0 antagonist.
[8] abbreviates: NCI-H292 cells, cholesterol-free media without statin, FDA drug library screen.
The mark [9] stands for this setting: NCI-H292 cells, complete media, FDA drug library screen.
Where [10] appears, read: FDA library drug in cholesterol-free media with simvastatin 0.04 μM.
The mark [11] stands for this setting: complete media vs cholesterol-free media + simvastatin (0.04 μM), […].
[12] abbreviates: complete vs cholesterol-free media, […].
[13] abbreviates: FDA library drug in complete media.
The mark [14] stands for this setting: complete media vs cholesterol-free media + simvastatin (0.04 μM), >0 enhanced anti-cancer activity, about 0 neutral, <0 antagonist.
Setting [15] is: Complete minus Cholesterol-free, greater than 0 enhanced anti-cancer activity, about 0 neutral, below 0 antagonists.
[16] abbreviates: NCI-H292 cells in cholesterol-free media without statin.
Where [17] appears, read: NCI-H292 cells in complete media.
Setting [18] is: NCI-H292 cells, FDA drug library screen, cholesterol-free media without statin.
[19] abbreviates: NCI-H292 cells, FDA drug library screen, complete media.
Where [20] appears, read: drug in cholesterol-free media with simvastatin 0.04 μM.

Take `O=C1[C@@H]2[C@H]3CC[C@H](C3)[C@@H]2C(=O)N1CCCCN1CCN(c2ncccn2)CC1` [Tandospirone]: in experiment [1] (cholesterol-free media with simvastatin 0.04 μM, FDA drug library screen (TABLE 2)), the “Cholesterol-free media + simvastatin (0.04 μM)” value turned out to be 0.8591. In addition, the “Complete Media” value in experiment [1] (complete media, FDA drug library screen (TABLE 2)) came to 0.8479. For the same compound, the Difference in experiment [1] (complete media minus cholesterol-free media + simvastatin (0.04 μM), >0 enhanced anti-cancer activity, about 0 neutral, <0 antagonist) is reported as −0.01; in experiment [2] (setting [3]), −0.26. This compound gave a Cholesterol-free in experiment [2] (setting [4]) of 1.451. Besides, in experiment [2] (NCI-H292 cells, complete media), the Complete is 1.192.

Turning to `O[C@@H]1CO[C@H]2[C@@H]1OC[C@@H]2O` [Isosorbide], the “Cholesterol-free media + simvastatin (0.04 μM)” value in experiment [1] (setting [5]) worked out at 0.9214. For the same compound, the “Complete Media” value in experiment [1] (setting [6]) came out at 1.515. Besides, the Difference in experiment [1] (setting [7]) is on record as 0.59; in experiment [2] (setting [3]), −0.05. In experiment [2] (setting [8]), this compound registered a Cholesterol-free of 1.174. Also, in experiment [2] (setting [9]), the Complete is recorded as 1.123.

On to `CC(C)[N+]1(C)[C@@H]2CC[C@H]1CC(OC(=O)C(CO)c1ccccc1)C2.[Br-]` (stereo partly drawn) [Ipratropium (bromide)], for which the “Cholesterol-free media + simvastatin (0.04 μM)” value in experiment [1] (setting [10]) amounted to 1.536. Besides, the Difference in experiment [1] (setting [11]) is reported as −0.39; in experiment [2] (setting [12]) it was −0.34. The compound further returned a Cholesterol-free in experiment [2] (setting [4]) of 1.233. This compound yielded a Complete in experiment [2] (NCI-H292 cells, complete media) of 0.8969.

Take `CN1C(C(=O)Nc2ccccn2)=C(O)c2ccccc2S1(=O)=O` [Piroxicam]: the “Cholesterol-free media + simvastatin (0.04 μM)” value in experiment [1] (setting [10]) is 1.433. For the same compound, the “Complete Media” value in experiment [1] (setting [13]) is listed as 1.008. The Difference in experiment [1] (setting [14]) is recorded as −0.42; in experiment [2] (setting [15]), −0.71. This compound registered a Cholesterol-free in experiment [2] (setting [16]) of 1.552. The compound further displayed a Complete in experiment [2] (setting [17]) of 0.8427.

For the compound `C(=C\c1ccccc1)/CN1CCN(C(c2ccccc2)c2ccccc2)CC1` [Cinnarizine], the “Cholesterol-free media + simvastatin (0.04 μM)” value in experiment [1] (cholesterol-free media with simvastatin 0.04 μM, cell growth value in FDA drug screen) came out at 1.061. Further, the Difference in experiment [1] (setting [7]) is 0.11; in experiment [2] (complete vs cholesterol-free media, greater than 0 enhanced anti-cancer activity, about 0 neutral, below 0 antagonists) it was −0.42. In experiment [2] (setting [4]), the Cholesterol-free is 1.344. The compound further came in with a Complete in experiment [2] (NCI-H292 cells, complete media) of 0.9213.

“Angiotensin III (TFA) (RVYIHPF; also: TFA salt; UniProt P01019 26-32, looked up)”: the “Complete Media” value in experiment [1] (drug in complete media) was 0.8125. Further, the Difference was −0.20 in experiment [1] (setting [11]) and −0.35 in experiment [2] (setting [12]). In addition, the Cholesterol-free in experiment [2] (setting [4]) came out at 1.338. Besides, the Complete in experiment [2] (NCI-H292 cells, complete media) turned out to be 0.9878.

In the case of `CCC(=O)O[C@@H](O[P@](=O)(CCCCc1ccccc1)CC(=O)N1C[C@H](C2CCCCC2)C[C@H]1C(=O)O)C(C)C` [Fosinopril (sodium)], in experiment [1] (setting [5]), the “Cholesterol-free media + simvastatin (0.04 μM)” value was determined as 0.91. For the same compound, the “Complete Media” value in experiment [1] (setting [6]) is on record as 1.199. For the same compound, the Difference in experiment [1] (setting [7]) is given as 0.29; in experiment [2] (setting [15]) it was −0.52. In experiment [2] (setting [16]), this compound gave a Cholesterol-free of 1.831. In experiment [2] (setting [17]), this compound had a Complete of 1.313.

In the case of `COc1ccc(CN(CCN(C)C)c2ccccn2)cc1` [Mepyramine maleate], in experiment [1] (setting [10]), the “Cholesterol-free media + simvastatin (0.04 μM)” value is reported as 1.226. Besides, in experiment [1] (setting [13]), the “Complete Media” value is given as 0.8399. Also, the Difference in experiment [1] (setting [14]) is listed as −0.39; in experiment [2] (Complete minus Cholesterol-free, greater than 0 enhanced anti-cancer activity, about 0 neutral, below 0 antagonist) it was −0.17. In addition, the Cholesterol-free in experiment [2] (setting [18]) worked out at 1.527. Further, the Complete in experiment [2] (setting [19]) was 1.356.

On to `CC(C)[C@H]1CC[C@H](C(=O)N[C@H](Cc2ccccc2)C(=O)O)CC1` [Nateglinide], for which the “Cholesterol-free media + simvastatin (0.04 μM)” value in experiment [1] (setting [5]) is on record as 1.052. Further, in experiment [1] (setting [6]), the “Complete Media” value is recorded as 1.823. Besides, the Difference in experiment [1] (setting [7]) is 0.77; in experiment [2] (complete vs cholesterol-free media, >0 enhanced anti-cancer activity, about 0 neutral, <0 antagonist), 0.74. The compound also registered a Cholesterol-free in experiment [2] (setting [8]) of 1.149. In experiment [2] (setting [9]), the Complete was 1.887.

Bromocriptine (mesylate): the “Cholesterol-free media + simvastatin (0.04 μM)” value in experiment [1] (setting [20]) came out at 0.9355. In experiment [1] (drug in complete media), the “Complete Media” value was 0.7343. In addition, the Difference in experiment [1] (setting [11]) was −0.20; in experiment [2] (Complete minus Cholesterol-free, […]), −0.12. For the same compound, in experiment [2] (setting [18]), the Cholesterol-free was found to be 0.9359. This compound also showed a Complete in experiment [2] (setting [19]) of 0.8127.

In the case of `COc1ccc(C(=O)c2ccccc2)c(O)c1` [Oxybenzone], the “Cholesterol-free media + simvastatin (0.04 μM)” value in experiment [1] (setting [20]) was determined as 1.175. Also, in experiment [1] (drug in complete media), the “Complete Media” value turned out to be 0.918. In addition, the Difference is reported as −0.26 in experiment [1] (setting [14]) and −0.29 in experiment [2] (setting [3]). The Cholesterol-free in experiment [2] (setting [4]) was 1.383. The compound further came in with a Complete in experiment [2] (NCI-H292 cells, complete media) of 1.094.
